Results taken from the supplement of paper PMC3493320.

Test system: NCI-H295R
Assay: IC50 (antiproliferative, ATP content)
Details: 48 h
Summary of the method: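 Serum-free ITS-supplemented DMEM was used to seed 1500 adrenocortical carcinoma cells per well in 1536-well plates, which were cultured overnight. Eight final concentrations of each library compound, from 0.6 nM to 46 µM, were added by pin transfer, followed by 48 h at 37 °C in 5% CO2 and a CellTiter-Glo ATP read after 20 min at room temperature. Luminescence was set against vehicle and positive-control wells, and the IC50 was obtained by logistic curve fitting. Any compound with no concentration response was entered as above the top dose.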

| SMILES | IC50 [µM] |
| --- | --- |
| CCC1(C2=NCCN2)Cc2ccccc2O1 (centres undefined) | > 46 |
| CC(C)[C@H](NC(=O)[C@H](CC(=O)O)NC(=O)[C@H](CCCCN)NC(=O)[C@@H](N)CCCNC(=N)N)C(=O)N[C@@H](Cc1ccc(O)cc1)C(=O)O | > 46 |
| O=C(C1CCCCC1)N1CC(=O)N2CCc3ccccc3C2C1 (centres undefined) | > 46 |
| CNc1ccc(C(=O)CC(O)CCC(C)C2OC(=O)CC(O)CC(=O)CC(O)CC(O)CC(O)CC(O)CC3(O)CC(O)C(C(=O)OC)C(CC(O[C@@H]4O[C@H](C)[C@@H](O)[C@H](N)[C@@H]4O)/C=C/C=C/C=C/C=C/C=C/C=C/C=C/C2C)O3)cc1 (some centres undefined) | > 46 |
| CCC(C)(C)C(=O)O[C@H]1C[C@@H](C)C=C2C=C[C@H](C)[C@H](CC[C@@H]3C[C@@H](O)CC(=O)O3)[C@H]21 | > 46 |
| N=C(N)NCCN1CCCCCCC1.O=S(=O)(O)O.O=S(=O)(O)O | > 46 |
| CCC(Cc1c(I)cc(I)c(N)c1I)C(=O)O (centres undefined) | > 46 |
| CCCCCCCCCC(CC)c1ccc(S(=O)(=O)[O-])cc1.[Na+] (centres undefined) | > 46 |
| O=S(=O)(O)c1ccc(O)cc1 | > 46 |
| CC(CCc1ccc(O)cc1)NCCc1ccc(O)c(O)c1 (centres undefined) | > 46 |
| CC(=O)CCC(=O)[O-].CC(=O)CCC(=O)[O-].O.O.[Ca+2] | > 46 |
| O=C1Nc2ccc(Cl)cc2C(c2ccccc2)=NC1O (centres undefined) | > 46 |
| O=C1CC[C@@]2(O)[C@H]3Cc4ccc(O)c5c4[C@@]2(CCN3CC2CC2)[C@H]1O5 | > 46 |
| CC(C)(C)NC[C@H](O)COc1ccccc1C1CCCC1.CC(C)(C)NC[C@H](O)COc1ccccc1C1CCCC1.O=S(=O)(O)O | > 46 |
| O=C(C2=CC=CC=C2)O[C@H]1C[C@H](CC3)N(C)[C@H]3[C@H]1[C@@](O)=O | > 46 |
| CC12CCC(CC1)C(C)(C)O2 | > 46 |
| O[C@H]([C@@]1=CC=CC=C1)[C@H](C)N(C)C | > 46 |
| Cl.Cn1c(NCCN(CCO)CCCc2ccc([N+](=O)[O-])cc2)cc(=O)n(C)c1=O | > 46 |
| CC(S)C(=O)NCC(=O)O (centres undefined) | > 46 |
| C=CCN1CC[C@]23c4c5ccc(O)c4O[C@H]2[C@@H](O)C=C[C@H]3[C@H]1C5.Cl | > 46 |
| COc1ccc(C(=O)NCc2ccc(OCCN(C)C)cc2)cc1OC.Cl | > 46 |
| N=C(N)NCc1cccc(I)c1.N=C(N)NCc1cccc(I)c1.O=S(=O)(O)O | > 46 |
| CCc1c2c(nc3ccc(OC(=O)N4CCC(N5CCCCC5)CC4)cc13)-c1cc3c(c(=O)n1C2)COC(=O)[C@]3(O)CC.Cl | > 46 |
| C[C@H](N)[C@H](O)c1cccc(O)c1.O=C(O)[C@@H](O)[C@@H](O)C(=O)O | > 46 |

| SMILES | IC50 [µM] |
| --- | --- |
| N[C@H](C(=O)O)[C@@H](O)c1ccc(O)c(O)c1 | > 46 |
| CNC(=O)c1c(I)c(C(=O)NCC(=O)Nc2c(I)c(C(=O)O)c(I)c(C(=O)NCCO)c2I)c(I)c(N(C)C(C)=O)c1I | > 46 |
| CN(C/C=C/c1ccccc1)Cc1cccc2ccccc12.Cl | > 46 |
| O=C(O)c1cccnc1 | > 46 |
| CC(C)CCCC(C)CCCC(C)CCCCC(C)CCCC(C)CCCC(C)C (centres undefined) | > 46 |
| CNC(=O)OCc1cccc(COC(=O)NC)n1 | > 46 |
| [NH2][Pt]1([NH2])[O]CC(=O)[O]1 | > 46 |
| C[N+](C)(C)CC(O)CC(=O)[O-].Cl (centres undefined) | > 46 |
| COCC(=O)Nc1c(I)c(C(=O)NCC(O)CO)c(I)c(C(=O)N(C)CC(O)CO)c1I (centres undefined) | > 46 |
| O=C(COc1ccc(Cl)cc1)OCCNC12CC3CC(CC(C3)C1)C2 | > 46 |
| CCCC(=O)O[C@]1(C(=O)CO)CC[C@H]2[C@@H]3CCC4=CC(=O)CC[C@]4(C)[C@H]3[C@@H](O)C[C@@]21C | > 46 |
| Cc1c(C(=O)NCCO)[n+]([O-])c2ccccc2[n+]1[O-] | > 46 |
| O=[C@@](NC2=O)[C@](N2)3C1=C(OCC3)C=CC(F)=C1 | > 46 |
| COc1cc(NS(=O)(=O)c2ccc(N)cc2)nc(OC)n1 | > 46 |
| Cc1cc(-c2ccccc2)nnc1NCCN1CCOCC1.Cl.Cl | > 46 |
| CC(=O)Nc1cc([As](=O)(O)O)ccc1O | > 46 |
| Cc1ccc(S(=O)(=O)O)cc1.c1cc2c(c(NC3=NCCN3)c1)CCCC2 | > 46 |
| COc1cc(NC(C)CCCN)c2ncccc2c1.O=P(O)(O)O.O=P(O)(O)O (centres undefined) | > 46 |
| Nc1nc(=O)n([C@@H]2CS[C@H](CO)O2)cc1F | > 46 |
| O=C(NCCO[N+](=O)[O-])c1cccnc1 | > 46 |
| C[C@](N)(Cc1ccc(O)c(O)c1)C(=O)O.C[C@](N)(Cc1ccc(O)c(O)c1)C(=O)O.O.O.O | > 46 |
| O=C(O)c1ccc(NC2OC[C@@H](O)[C@H](O)[C@H]2O)cc1 (some centres undefined) | > 46 |
| CCC1NC(=O)c2cc(S(N)(=O)=O)c(Cl)cc2N1 (centres undefined) | > 46 |
| C#CCN(C)CCCOc1ccc(Cl)cc1Cl.Cl | > 46 |

| SMILES | IC50 [µM] |
| --- | --- |
| CCn1cc(C(=O)O)c(=O)c2ccc(C)nc21 | > 46 |
| CC(C)COC(=O)OCN1C(=O)CN(CCN2CC(=O)N(COC(=O)OCC(C)C)C(=O)C2)CC1=O | > 46 |
| CC(CNC(=O)c1cccnc1)NC(=O)c1cccnc1 (centres undefined) | > 46 |
| O=C(CCCN1CCN2CCCC2C1)c1ccc(F)cc1 (centres undefined) | > 46 |
| OC[C@H]1O[C@@H]2O[C@H]3[C@H](O)[C@@H](O)[C@@H](O[C@H]4[C@H](O)[C@@H](O)[C@@H](O[C@H]5[C@H](O)[C@@H](O)[C@@H](O[C@H]6[C@H](O)[C@@H](O)[C@@H](O[C@H]7[C@H](O)[C@@H](O)[C@@H](O[C@H]8[C@H](O)[C@@H](O)[C@@H](O[C@H]1[C@H](O)[C@H]2O)O[C@@H]8CO)O[C@@H]7CO)O[C@@H]6CO)O[C@@H]5CO)O[C@@H]4CO)O[C@@H]3CO | > 46 |
| O[C@H]1[C@H]2[C@H](O)CCCN2C[C@H]1O | > 46 |
| O=P([O-])(O)C(Cl)(Cl)P(=O)([O-])O.[Na+].[Na+] | > 46 |
| OC(=O)[C@@H](N)C\C2=C\Nc1ccc(O)cc12 | > 46 |
| O=P1(NCCCl)OCCCN1CCCl (centres undefined) | > 46 |
| C[N+]1(C)[C@@H]2CC[C@H]1C[C@H](OC(=O)c1c[nH]c3ccccc13)C2.[I-] | > 46 |
| Cc1cc(CC(=O)O)c(C)n1-c1ccc(Cl)cc1 | > 46 |
| CN1C(=S)CN=C(c2ccccc2)c2cc(Cl)ccc21 | > 46 |
| CCC(C)(CN(C)C)OC(=O)c1ccccc1.Cl (centres undefined) | > 46 |
| COC(=O)C(c1ccccc1)C1CCCCN1.Cl (centres undefined) | > 46 |
| CN1CCN(C2=Nc3ccccc3Sc3ccc(Cl)cc32)CC1 | > 46 |
| CC1=C(C)C(=O)C(C(CCCCCC(=O)O)c2ccccc2)=C(C)C1=O (centres undefined) | > 46 |
| Cc1cc2nc3c(=O)[nH]c(=O)nc-3n(C[C@H](O)[C@H](O)[C@H](O)CO)c2cc1C | > 46 |
| O=C5O[C@]4(CC5)[C@@]3(C)C[C@@H]6[C@]([C@@]([C@@]([H])3CC4)([H])[C@H]([C@@](OC)=O)C2)(O6)[C@@](C2=C1)(C)CCC1=O | > 46 |
| CCN(CC)CCNC(=O)c1cc(S(C)(=O)=O)ccc1OC.Cl | > 46 |
| OCc1ccccn1 | > 46 |
| CC(C)=CCC/C(C)=C/CO | > 46 |
| Nc1ncnc2c1ncn2[C@H]1CC[C@@H](CO)O1 | > 46 |
| CC1(C)O[C@@H]2[C@@H](CO[C@@]3(COS(N)(=O)=O)OC(C)(C)O[C@@H]23)O1 | > 46 |
| NC(=O)OCC(COC(N)=O)c1ccccc1 | > 46 |

| SMILES | IC50 [µM] |
| --- | --- |
| COc1ccc(C=NNC(=O)c2ccncc2)c(C(=O)O)c1OC | > 46 |
| CC(C)c1nc(N(C)S(C)(=O)=O)nc(-c2ccc(F)cc2)c1/C=C/C(O)CC(O)CC(=O)[O-].CC(C)c1nc(N(C)S(C)(=O)=O)nc(-c2ccc(F)cc2)c1/C=C/C(O)CC(O)CC(=O)[O-].[Ca+2] (centres undefined) | > 46 |
| O=CC=O | > 46 |
| F[C@]1([C@](C[C@@H]4F)([H])[C@@]3([H])[C@]([C@@]([C@H](C)C3)(O)[C@@](CO)=O)(C)C[C@@H]1O)[C@](C=C2Cl)(C)C4=CC2=O.O | > 46 |
| O=C(O)CCC(=O)C(=O)O | > 46 |
| O=P([O-])([O-])OC[C@@]1(O)O[C@H](COP(=O)([O-])O)[C@@H](O)[C@@H]1O.[Na+].[Na+].[Na+] | > 46 |
| CCCCCCCCCCOCC(O)CN.Cl (centres undefined) | > 46 |
| CCCc1nc(C(C)(C)O)c(C(=O)OCc2oc(=O)oc2C)n1Cc1ccc(-c2ccccc2-c2nnn[nH]2)cc1 | > 46 |
| Cl.OC(CCN1CCCCC1)(c1ccccc1)C1CCCCC1 (centres undefined) | > 46 |
| OC(Cn1cncn1)(Cn1cncn1)c1ccc(F)cc1F | > 46 |
| CCC(=O)O.CCC(=O)O.O=C(Nc1cccc(C2=NCCN2)c1)Nc1cccc(C2=NCCN2)c1 | > 46 |
| CC(C)CC(=O)N[C@H](C(=O)N[C@H](C(=O)N[C@@H](CC(C)C)[C@@H](O)CC(=O)N[C@@H](C)C(=O)N[C@@H](CC(C)C)[C@@H](O)CC(=O)O)C(C)C)C(C)C | > 46 |
| Cl.N[C@H]1C(O)O[C@H](CO)[C@@H](O)[C@@H]1O (some centres undefined) | > 46 |
| CCCOC(=O)c1ccccc1O | > 46 |
| COc1ccc(CCNC[C@H](O)c2ccc(O)cc2)cc1OC | > 46 |
| CC(=O)O[C@H]1C[C@@H]2CC[C@@H]3[C@H](CC[C@@]4(C)[C@H]3C[C@H]([N+]3(C)CCCCC3)[C@@H]4OC(C)=O)[C@@]2(C)C[C@@H]1[N+]1(C)CCCCC1.[Br-].[Br-] | > 46 |
| NS(=O)(=O)c1cc2c(cc1Cl)NCNS2(=O)=O | > 46 |
| O=C(O)CNC(=O)c1ccccc1I | > 46 |
| CC(CN(C)C)C(C)(O)Cc1ccc(Cl)cc1.Cl (centres undefined) | > 46 |
| CCC(=O)c1ccc(O)cc1 | > 46 |
| Clc1ccc2c(c1)C(c1ccccc1)=NCc1nncn1-2 | > 46 |
| COc1ccc(CC2c3cc(OC)c(OC)cc3CC[N+]2(C)CCC(=O)OCCCCCOC(=O)CC[N+]2(C)CCc3cc(OC)c(OC)cc3C2Cc2ccc(OC)c(OC)c2)cc1OC.O=S(=O)([O-])c1ccccc1.O=S(=O)([O-])c1ccccc1 (centres undefined) | > 46 |
